From patent US11435345B2, “Detection and treatment of demyelinating diseases” (MATN SCIENTIFIC LIMITED, priority 2016, dated 2022)
“Also recorded” adds a separate entry of the source. No end group written: not given here.

Columns and labels:
[1] = tested on: multiple sclerosis patients; conditions: MS patients; cited from earlier work
[2] = tested on: antibody that binds to the oligopeptide in serum samples; assay: ELISA assay of serum antibody that binds to biotinylated oligopeptides immobilised on streptavidin plates; assay type: binding, human; conditions: pH 7.4, female subjects, FIG. 2
Text: Six exemplary oligopeptides of the invention (each 17 amino-acids long, with biotinylated N-terminus) were used to prepare ELISA assays for studying antibody levels in patient samples. The oligopeptides were synthesised by K J Ross-Petersen ApS (Copenhagen, Denmark) and provided in lyophilized form. General serum diluent was purchased from Immunochemistry Technologies LLC (Minnesota, USA). Streptavidin coated 96-Well microplates were purchased from Eagle Biosciences (New Hampshire, USA) and the oligopeptides were applied to individual wells of the streptavidin plates as described below.
Sample preparation: Following obtaining informed consent, a 5 ml venous blood sample was withdrawn from each individual participating in this study. Samples were centrifuged for 10 minutes at 3000 RPM. Serum was then transferred into a clean plastic vial and the remainder was discarded. Serum was then diluted in general serum diluent (200 μl/mL), labelled accordingly and stored at −20° C. […]
ELISA protocol: Typical ELISA protocol was followed for quantifying antibodies present in serum. […] The plate was shaken for 5 seconds at 250 RPM and absorbance was measured using plate reader at wavelength 450 nm and 630 nm filter. Elisys Uno fully automated ELISA analyser (HUMAN company, Wiesbaden, Germany) was used to read the measurements. […]

chicks = assay: MS induction in chicks with antigens combined with pertussis and adjuvant; assay type: in vivo, chick; conditions: 1 mg antigen per 70 g body weight
Procedure: As a preliminary examination of our proposed treatment method, we induced MS in chicks by injecting antigens P, F, E and A (corresponding to SEQ ID NOs: 20, 21, 22 and 23) combined with pertussis and adjuvant. The dosage was 1 mg antigen per 70 g body weight. The main reason we chose this animal was to be able to easily visualize the walking impairment as they are bipedal like humans (compared to quadrupedal rodents). Initial symptoms were seen 12 days after antigen injection.

C57BL/6 mice [3] = assay: Disease induction with antigen and adjuvant in combination with Pertussis toxin; assay type: in vivo, mouse; conditions: for severity of muscle weakness compared between antigens / grade of plaques compared to control animals: mice; for grade of plaques compared to control animals: mid brain section, antigen + adjuvant + pertussis, FIG. 8
Procedure: (§1) Male (n=16) and female (n=16) C57BL/6 mice, weighing between 16-18 g, were purchased from Royan institute (Tehran, Iran). MS induction study started when mice reached 6-8 weeks of age. Similar investigations were carried chick and guinea pig (data not shown). All procedures were performed aseptically and under supervision of Gandhi Hospital medical ethics committee (Tehran, Iran). Freund's complete adjuvant and Pertussis toxin purchased from Sigma-Aldrich (Dorset, UK).
At day 1 and day 2, 250 μg of antigen (oligopeptides of the invention) diluted in 150 μl of saline combined with 150 μl of adjuvant was injected intra-dermally into alcohol wiped back of each mouse. Following the injection of antigens, 400 ng Pertussis toxin diluted in 300 μl distilled water was injected intraperitoneally. Two control groups received either 150 μl distilled water in 150 μl of adjuvant or 400 ng Pertussis toxin diluted in 300 μl distilled water. The animals were kept in standard housing condition with appropriate temperature and humidity as well as adequate supplies of food and fresh water.
(§2) After scarifying mice by anaesthesia overdose at day 15 of injection, their brain was dissected out and fixed in 10% Formalin for histological analysis. The fixed samples were subsequently cut horizontally and processed to produce 5-micron thin paraffin sections, which then were stained with Haematoxylin and eosin (H&E), Glial fibrillary acidic protein (GFAP), CD-68 and Luxol fast blue (LFB). Various sections of the brain were then analyzed and imaged using a bright-field microscope (Optika B-383PL, Bergamo, Italy). Grade of plaque formation was defined as number of plaques measured in mid brain section as follow: […]
The effect of injected oligopeptide antigens of the invention on muscular function was tested by measuring animal fall time from inverted cage and ring. These tests follow the format of commonly used functional muscle evaluation tests in mice that use “wire hanging” behavioral tests wherein latency to fall after being suspended from a substrate is quantified to give a measure of muscular function.

C57BL/6 mice [4] = assay: Disease induction with antigen and adjuvant without Pertussis toxin; assay type: in vivo, mouse; conditions: for grade of plaque formation: mid brain section, day 15, without Pertussis, FIG. 12
Procedure: as §1
C57BL/6 mice were injected with adjuvant and antigens (oligopeptides of the invention) at day 0 and 5. Control group received the injection of only adjuvant in distilled water.
as §2

[5] = fall from inverted cage and ring

| Substance | balance compared to controls (chicks) | time to initial symptoms after antigen injection (chicks) | weight compared to controls (chicks) | grade of plaques compared to control animals (C57BL/6 mice [3]) | also measured |
| --- | --- | --- | --- | --- | --- |
| Glatiramer acetate [Copaxone] | – | – | – | – | fewer relapses than patients taking placebo [1]: about 30% |
| MPRTQENAHSLERCWL [antigen H, MPRTQENAHSLERCWL] | – | – | – | – | differences between healthy female patients (HF) and female patients with MS (FMS) in the levels of antibody that bind to the oligopeptide [2]: significant for each exemplary oligopeptide besides H and S |
| RDSANIYHADSLKGRFT (Oligopeptide motif) [antigen A] | lack of balance | 12 days | Significant weight loss | significantly higher | severity of muscle weakness compared between antigens (C57BL/6 mice [3]; [5]): less than those injected with oligopeptide antigen P; also recorded: considerably less effect than oligopeptide antigens E and F |
| RGSRGQHQAHSLERVCH (Oligopeptide motif) [antigen P] | lack of balance | 12 days | Significant weight loss | – | severity of muscle weakness compared between antigens (C57BL/6 mice [3]; [5]): considerably less effect than oligopeptide antigens E and F |
| RHSDEHHHDDSLPHPQQ (Oligopeptide motif) [antigen E] | lack of balance | 12 days | Significant weight loss | significantly higher | grade of plaque formation (C57BL/6 mice [4]; female mice): 9 (24-27); induction of MS in females (C57BL/6 mice [4]; females): major inducer of MS in females; muscle weakness in female mice (C57BL/6 mice [3]; female mice, fall from inverted cage and ring): most pronounced muscle weakness |
| RLTLSPEQAHSLILQHL [antigen S, RLTLSPEQAHSLILQHL] | – | – | – | – | differences between healthy female patients (HF) and female patients with MS (FMS) in the levels of antibody that bind to the oligopeptide [2]: significant for each exemplary oligopeptide besides H and S |
| RVPGCAHHADSLYTYPV (Oligopeptide motif) [antigen F] | lack of balance | 12 days | Significant weight loss | significantly higher | grade of plaque formation (C57BL/6 mice [4]; male mice): 7 (18-21); induction of MS in males (C57BL/6 mice [4]; males): major inducer of MS in males; muscle weakness in male mice (C57BL/6 mice [3]; male mice, fall from inverted cage and ring): most pronounced muscle weakness |
